ChEMBL document CHEMBL1201862, “PubChem BioAssay data set” (2004)
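Cells were grown in 96-well plates and exposed to each compound for 48 hours at five concentrations; endpoints were interpolated linearly between bracketing concentrations, or set to the highest concentration if not reached. The concentration for 50% growth inhibition is given as GI50.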 Calls of active or inactive are those of the source. Rule as the data show it: active = GI50 up to about 1.1 µM and inactive = higher.

Legend:
Assay in all cases: NCI tumour cell line growth inhibition, 48 h
CCRF-CEM = system: CCRF-CEM
SK-MEL-28 = system: SK-MEL-28
HT-29 = system: HT-29
KM12 = system: KM12
SK-MEL-2 = system: SK-MEL-2
SF-295 = system: SF-295
SF-268 = system: SF-268
HCC 2998 = system: HCC 2998
786-0 = system: 786-0
HL-60 = system: HL-60
SW-620 = system: SW-620
HCT-116 = system: HCT-116
A549 = system: A549
SNB-19 = system: SNB-19
LXFL 529 = system: LXFL 529
UO-31 = system: UO-31
ACHN = system: ACHN
NCI/ADR-RES = system: NCI/ADR-RES

Structure (SMILES)	GI50 (CCRF-CEM)	GI50 (SK-MEL-28)	GI50 (HT-29)	GI50 (KM12)	GI50 (SK-MEL-2)	GI50 (SF-295)	GI50 (SF-268)	GI50 (HCC 2998)	GI50 (786-0)	GI50 (HL-60)	GI50 (SW-620)	GI50 (HCT-116)	GI50 (A549)	GI50 (SNB-19)	GI50 (LXFL 529)	GI50 (UO-31)	GI50 (ACHN)	GI50 (NCI/ADR-RES)
N#C/C(=C\c1cc(OCc2ccccc2)c(OCc2ccccc2)cn1)C(N)=O	32.1 µM (inactive)	> 100 µM (inactive)	> 100 µM (inactive)	> 100 µM (inactive)	> 100 µM (inactive)	> 100 µM (inactive)	> 100 µM (inactive)	> 100 µM (inactive)	> 100 µM (inactive)	16 µM (inactive)	> 100 µM (inactive)	35.5 µM (inactive)	> 100 µM (inactive)	> 100 µM (inactive)	> 100 µM (inactive)	> 100 µM (inactive)	> 100 µM (inactive)	
COc1cc(C[P+](c2ccccc2)(c2ccccc2)c2ccccc2)cc(OC)c1OC	> 100 µM (inactive)	> 100 µM (inactive)	> 100 µM (inactive)	> 100 µM (inactive)	> 100 µM (inactive)	> 100 µM (inactive)	> 100 µM (inactive)	> 100 µM (inactive)	> 100 µM (inactive)	> 100 µM (inactive)	> 100 µM (inactive)	> 100 µM (inactive)	> 100 µM (inactive)	> 100 µM (inactive)	> 100 µM (inactive)	> 100 µM (inactive)	> 100 µM (inactive)	
CCOC(=O)NC(=O)c1cn(CCN2CCN(C(=O)CNC(=O)CNC(=O)Cn3cc(C(=O)NC(=O)OCC)c(=O)[nH]c3=O)CC2)c(=O)[nH]c1=O	> 100 µM (inactive)	> 100 µM (inactive)	> 100 µM (inactive)	> 100 µM (inactive)	> 100 µM (inactive)	> 100 µM (inactive)	> 100 µM (inactive)	> 100 µM (inactive)	> 100 µM (inactive)	> 100 µM (inactive)	> 100 µM (inactive)	> 100 µM (inactive)	> 100 µM (inactive)	> 100 µM (inactive)	> 100 µM (inactive)	> 100 µM (inactive)	> 100 µM (inactive)	
O=C(O)/C=C/C(=O)N1C/C(=C\c2ccccc2)C(=O)/C(=C/c2ccccc2)C1	2.36 µM (inactive)	6.49 µM (inactive)	7.76 µM (inactive)	2.55 µM (inactive)	12.6 µM (inactive)	5.01 µM (inactive)	6.35 µM (inactive)	6.67 µM (inactive)	3.3 µM (inactive)	7.96 µM (inactive)	2.32 µM (inactive)	1.82 µM (inactive)	21.4 µM (inactive)	11.3 µM (inactive)	1.8 µM (inactive)	18.2 µM (inactive)	8.13 µM (inactive)	8.65 µM (inactive)
COC(=O)/C(=N\NC(N)=S)C(C#N)c1ccccc1 (stereo unspecified)	> 100 µM (inactive)	> 100 µM (inactive)	> 100 µM (inactive)	> 100 µM (inactive)	> 100 µM (inactive)	> 100 µM (inactive)	> 100 µM (inactive)	> 100 µM (inactive)	> 100 µM (inactive)	> 100 µM (inactive)	> 100 µM (inactive)	> 100 µM (inactive)	> 100 µM (inactive)	> 100 µM (inactive)	> 100 µM (inactive)	> 100 µM (inactive)	> 100 µM (inactive)	
CC(N)Cc1ccc(Cl)cc1 (stereo unspecified)	61.2 µM (inactive)	> 100 µM (inactive)	50.8 µM (inactive)	> 100 µM (inactive)	> 100 µM (inactive)	47.9 µM (inactive)	> 100 µM (inactive)	> 100 µM (inactive)	> 100 µM (inactive)	37.6 µM (inactive)	> 100 µM (inactive)	41 µM (inactive)	> 100 µM (inactive)	> 100 µM (inactive)	> 100 µM (inactive)	59.4 µM (inactive)	> 100 µM (inactive)	
CSC[S+]([O-])C[C@H](CO)NC(=O)/C=C/c1c(C)[nH]c(=O)[nH]c1=O (stereo partly specified)	1.19 µM (inactive)	0.767 µM (active)	1.85 µM (inactive)	1.34 µM (inactive)	1.08 µM (active)	0.457 µM (active)	0.277 µM (active)	1.45 µM (inactive)	1.74 µM (inactive)	1.2 µM (inactive)	2.21 µM (inactive)	1.66 µM (inactive)	1.15 µM (inactive)	0.52 µM (active)	1.96 µM (inactive)	1.61 µM (inactive)	1.48 µM (inactive)	1.27 µM (inactive)
